{
  "source": "patent US12594283B2",
  "about": "(The Medical College of Wisconsin, Inc., priority 2019, dated 2026)",
  "key": {"[1]": {"test_system": "A549 human lung cancer cells", "test": "A549 cell proliferation, IncuCyte", "format": "cell-based", "source_text": "FIG. 3. […] Cell proliferation was monitored in real-time with the continuous presence of indicated treatments until the end of each experiment. The cell confluence (as control groups reach 98% confluency) is plotted against concentration. Dashed lines represent the fitting curves used to determine the IC50 values as indicated.\nThe IncuCyte Live-Cell Imaging system (IncuCyte Essen Bioscience Inc., Ann Arbor, MI) was used to monitor cell proliferation.^11-13 As shown in previous publications,^11,12 this imaging system is probe-free and noninvasive, and enables continuous monitoring of cell confluence over several days. The increase in the percentage of cell confluence was used as a surrogate marker of cell proliferation. In a 96-well plate, cells were plated at 1,000 cells per well in triplicates and left to adhere overnight."}, "[2]": {"molecular_target": "T1, mitochondrial complex III (Homo sapiens, UniProt P00156+P47985)", "T1 construct": "endogenous in cells; host or cells: MiaPaCa-2", "test": "Mitochondrial complex III-driven oxygen consumption rate (Seahorse XF96) in permeabilized MiaPaCa-2 cells", "format": "cell-based", "settings": "24 h treatment", "procedure": "FIG. 2. Effects of Mito-ATO analogs on the oxygen consumption induced by mitochondrial complexes I and III. […] MiaPaCa-2 cells were treated with Mito-ATO for 24 h. Relative complex I (1.5 mM malate, 10 mM pyruvate, 10 mM ADP)-driven OCR (left) and relative complex III (0.5 mM duroquinol, 10 mM ADP)-driven OCR (right) were monitored by XF-96 analyser. Either Rot (complex I inhibitor) or antimycin A (AA, complex III inhibitor) was acutely added and OCR assayed immediately. […] Dashed lines represent the fitting curves used for determination of the IC50 values. (n.a., not applicable).\nThe mitochondrial complex activities were assessed by measuring the oxygen consumption rate (OCR) using the Seahorse technique.^6,11-4 MiaPaCa-2 cells were treated separately with Mito-ATO analogs at different concentrations for 24 h and OCR was measured.\nMitochondrial bioenergetic function was measured in real time using the Seahorse XF 96 Extracellular Flux Analyzer (Agilent, North Billerica, MA).^11-13,22 The OCR-based assessment of mitochondrial complex activities was carried out on acutely permeabilized cells in the presence of different mitochondrial substrates, i.e., pyruvate/malate, for complex I and duroquinol for complex III.^11,14,31,32 Rot, malonate, and antimycin A (Sigma-Aldrich, St. Louis, MO) were used as specific inhibitors of mitochondrial complexes I, II, and III, respectively. Briefly, cells that were intact after treatments were immediately permeabilized using the Seahorse XF Plasma Membrane Permeabilizer (Agilent). The mitochondrial complex I-driven OCR was assayed in mannitol and sucrose buffer^31 containing 10 mM pyruvate and 1.5 mM malate (substrates for complex I) and 10 mM malonate (which inhibits complex II activities). The mitochondrial complex III-driven OCR was assayed in mannitol and sucrose buffer containing 0.5 mM duroquinol (substrate for complex III) and 1 μM Rot and 10 mM malonate (which inhibit both complex I and II activities). The mitochondrial complex-dependent oxygen consumption (calculated as Rot- or antimycin A-inhibitable OCR equals basal OCR less OCR after Rot or antimycin A injection) was plotted against concentrations to determine the IC50 values."}, "[3]": {"test_system": "CD4+ T cells from SMARTA triple reporter mice", "test": "In vitro differentiation of CD4+ T regulatory cells, flow cytometry", "format": "cell-based, mouse", "source_text": "FIG. 5. In vitro differentiation of CD4^+ T regulatory cells under varying concentrations of Mito-ATOs and controls. After six days of culture, cells were stained for flow cytometry analysis. (left) Live/dead staining to assess the percentage of live CD4+ T cells within the lymphocyte gate. (middle) Teff cell function is shown as the frequency of IFNγ-GFP positive cells within the live CD4^+ T cells. (right) The percentage of Treg cells is shown as the frequency of FoxP3^+CD25^+ cells within the live CD4^+ T cells.\nAfter six days, cells were stained to assess viability, phenotype, and function using the flow cytometry.\nMice. SMARTA triple reporter mice were generated in the following manner. First, IL-10 and IL-21 double-reporter mice^33 were generated by cross-breeding IL-21tRFP mice^34-35 with 10 BiT mice (kindly provided by Dr. Casey Weaver, University of Alabama at Birmingham). Double reporter mice were then crossed with GREAT (interferon-gamma reporter with endogenous polyA transcript) mice^36 from Jackson Laboratory (Stock No. 017581). These triple-reporter mice were then crossed with SMARTA mice^37 (kindly provided by Dr. Dorian McGavern, National Institutes of Health). Mice were bred and maintained in a closed breeding facility, and mouse handling conformed to the requirements of the Medical College of Wisconsin Institutional Animal Care and Use Committee guidelines. All experimental protocols were approved by the Medical College of Wisconsin Institutional Animal Care and Use Committee.\nCell culture. To differentiate CD4^+ T cells into a T regulatory cell phenotype, splenocytes from SMARTA triple-reporter mice were processed and the red blood cell lysed using an ACK (ammonium-chloride-potassium) lysis buffer. The cells were then activated with 1 μg/mL […] peptide (GenScript, Piscataway, NJ) and 5 ng/mL TGF-β1 (Shenandoah Biotechnology, Inc., Warwick, PA). […] Cells were cultured for six days and split once cells reached confluency; cells were replenished with IL-2 and compound accordingly. After six days in culture, cells were stained to assess the viability and phenotypic analysis via flow cytometry. LIVE/DEAD fixable violet or aqua dead cell stain (Invitrogen, Carlsbad, CA) was used to assess cell viability. The following antibodies were used for flow cytometry staining: PercP anti-mouse CD4 (clone: GK1.5; BioLegend, San Diego, CA), APC/Cy7 anti-mouse CD25 (clone: PC61; BioLegend), and PE anti-mouse FOXP3 (clone: FJK-16S; eBioscience, San Diego, CA). Flow cytometry data were acquired using a BD LSRII (BD Biosciences, CA) flow cytometer and analysed using FlowJo (Treestar, Inc., Ashland, OR)."}, "MiaPaCa-2 and A549 cells": {"test_system": "MiaPaCa-2 and A549 cells", "test": "Cellular uptake by LC-MS/MS", "format": "cell-based, human", "settings": "Mito10-ATO 0.1 and 1 μM, ATO 1-10 μM; 1, 2, 4 and 24 h", "procedure": "The compounds were extracted according to the published experimental protocol.^11,12 Briefly, cells were washed twice with ice-cold DPBS (Dulbecco's Phosphate Buffered Saline) and harvested. The cell pellet was immediately frozen in liquid nitrogen and stored at −80° C. For the extraction, the pellet was homogenized in 200 μl DPBS (2 μl were taken for protein assay) and extracted twice with a dichloromethane:methanol (2:1) mixture. The organic layers were combined and dried using a SpeedVac concentrator (Thermo Fisher Scientific, Waltham MA). The dry residue was dissolved in ice-cold methanol and taken for LC-MS/MS analysis. LC-MS/MS analyses were performed using a Kinetex Phenyl-Hexyl column (50 mm×2.1 mm, 1.7 μm; Phenomenex, Torrance, CA) equilibrated with a water:acetonitrile mixture (4:1) containing 0.1% formic acid. Compounds were eluted by increasing the content of acetonitrile from 20% to 100% over 4 min and detected using the MRM (multiple reaction monitoring) mode."}},
  "data": [
    {"smiles": "O=C1C(OCCCCCCCCCC[P+](c2ccccc2)(c2ccccc2)c2ccccc2)=C([C@H]2CC[C@H](c3ccc(Cl)cc3)CC2)C(=O)c2ccccc21", "note": "[Mito10-ATO]", "values": [
      {"measurement": "effect on cell proliferation", "setting": "[1]", "result": "effective at halting cell proliferation"},
      {"measurement": "inhibition of complex III-induced oxygen consumption", "setting": "[2]", "result": "potently inhibit"},
      {"measurement": "IC50", "setting": "[2]; duroquinol, antimycin A-inhibitable OCR, read-out: IC50 to inhibit oxygen consumption by complex III", "result": 780, "unit": "nM"},
      {"measurement": "Treg (FoxP3+CD25+) differentiation and/or survival", "setting": "[3]; six days culture with TGFβ and IL-2, ATO, butyl-ATO, decyl-ATO up to 60 μM", "result": "inhibited Foxp3^+ Treg differentiation and/or survival"},
      {"measurement": "Teff cell IFNγ production", "setting": "[3]; six days culture, IFNγ-GFP positive cells within live CD4+ T cells", "result": "promoted Teff cell IFNγ production in a dose-dependent manner"},
      {"measurement": "cellular uptake / intracellular accumulation", "setting": "MiaPaCa-2 and A549 cells", "result": "accumulated inside the cells with time"}
    ]}
  ]
}
